Starred links: 1 amine or outer side, 2 acyl side, 3 side chain; linkers in the order of their positions; H or OH if unused. Positions of bridges follow the written chain, without caps; N, C: chain ends. Non-standard residues stand in square brackets, D forms with d. Residues, ends and D or L forms follow the SMILES beside them. Chains are numbered I, II in the order given. Actinocin(9to1) = Cc1c2oc3c(C)ccc(C(=O)[*:1])c3nc-2c(C(=O)[*:2])c(N)c1=O; NMeV = CN[C@H](C(=O)O)C(C)C; Sar = CNCC(=O)O
Assays:
[1] = target: T1, OCTN2 (organic cation/carnitine transporter 2) (Homo sapiens, UniProt O76082); assay: in vitro; conditions: HEK293 cells that express OCTN2, probe Carnitine
T1 sequence (O76082 whole entry): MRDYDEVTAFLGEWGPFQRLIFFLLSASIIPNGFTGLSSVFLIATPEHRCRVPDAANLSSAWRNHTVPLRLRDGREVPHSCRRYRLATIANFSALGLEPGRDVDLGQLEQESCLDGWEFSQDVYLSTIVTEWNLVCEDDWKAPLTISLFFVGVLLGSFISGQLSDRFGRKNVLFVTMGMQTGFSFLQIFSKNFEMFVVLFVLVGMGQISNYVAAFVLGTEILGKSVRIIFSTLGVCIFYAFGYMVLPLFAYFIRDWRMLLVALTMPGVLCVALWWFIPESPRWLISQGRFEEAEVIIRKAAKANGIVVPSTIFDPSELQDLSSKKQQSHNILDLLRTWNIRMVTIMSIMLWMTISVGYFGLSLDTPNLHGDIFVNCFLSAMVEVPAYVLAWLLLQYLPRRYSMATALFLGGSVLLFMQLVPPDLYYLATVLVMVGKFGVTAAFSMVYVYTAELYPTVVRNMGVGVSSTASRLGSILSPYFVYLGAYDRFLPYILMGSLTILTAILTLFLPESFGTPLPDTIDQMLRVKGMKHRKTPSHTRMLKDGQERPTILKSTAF
Description: TP_TRANSPORTER: inhibition of Carnitine uptake (Carnitine: 0.010? uM, TEA: 500 uM) in OCTN2-expressing HEK293 cells

[2] = target: T2, Organic cation/carnitine transporter 2 (Homo sapiens, UniProt O76082); assay: (§1) TP_TRANSPORTER: uptake in OCTN2-expressing HEK293 cells; assay type: functional, cell-based
T2 sequence (O76082 whole entry): T1 sequence (O76082 whole entry)

[3] = target: T1, OCTN2 (organic cation/carnitine transporter 2); assay: TP_TRANSPORTER: inhibition of Carnitine uptake (Carnitine: 0.010? uM, Verapamil: 500 uM) in OCTN2-expressing HEK293 cells; assay type: functional, cell-based; design: scale not given: the % may be the effect or the level left; conditions: HEK293 cells that express OCTN2, probe Carnitine, read-out: Activity
[4] = target: T1, OCTN2 (organic cation/carnitine transporter 2); assay: TP_TRANSPORTER: inhibition of Carnitine uptake (Carnitine: 0.010? uM, MPP+: 100 uM) in OCTN2-expressing HEK293 cells; assay type: functional, cell-based; design: scale not given: the % may be the effect or the level left; conditions: HEK293 cells that express OCTN2, probe Carnitine, read-out: Activity
[5] = target: T1, OCTN2 (organic cation/carnitine transporter 2); assay: TP_TRANSPORTER: inhibition of Carnitine uptake (Carnitine: 0.010? uM, Corticosterone: 500 uM) in OCTN2-expressing HEK293 cells; assay type: functional, cell-based; design: scale not given: the % may be the effect or the level left; conditions: HEK293 cells that express OCTN2, probe Carnitine, read-out: Activity
[6] = target: T1, OCTN2 (organic cation/carnitine transporter 2); assay: TP_TRANSPORTER: inhibition of Carnitine uptake (Carnitine: 0.010? uM, Actinomycin D: 100 uM) in OCTN2-expressing HEK293 cells; assay type: functional, cell-based; design: scale not given: the % may be the effect or the level left; conditions: HEK293 cells that express OCTN2, probe Carnitine, read-out: Activity
[7] = target: T1, OCTN2 (organic cation/carnitine transporter 2); assay: TP_TRANSPORTER: inhibition of Carnitine uptake (Carnitine: 0.010? uM, Cefsulodin: 500 uM) in OCTN2-expressing HEK293 cells; assay type: functional, cell-based; design: scale not given: the % may be the effect or the level left; conditions: HEK293 cells that express OCTN2, probe Carnitine, read-out: Activity
[8] = target: T1, OCTN2 (organic cation/carnitine transporter 2); assay: TP_TRANSPORTER: inhibition of Carnitine uptake (Carnitine: 0.010? uM, GPFX: 500 uM) in OCTN2-expressing HEK293 cells; assay type: functional, cell-based; design: scale not given: the % may be the effect or the level left; conditions: HEK293 cells that express OCTN2, probe Carnitine, read-out: Activity
[9] = target: T1, OCTN2 (organic cation/carnitine transporter 2); assay: TP_TRANSPORTER: inhibition of Carnitine uptake (Carnitine: 0.010? uM, Pyrilamine: 500 uM) in OCTN2-expressing HEK293 cells; assay type: functional, cell-based; design: scale not given: the % may be the effect or the level left; conditions: HEK293 cells that express OCTN2, probe Carnitine, read-out: Activity
[10] = target: T1, OCTN2 (organic cation/carnitine transporter 2); assay: TP_TRANSPORTER: inhibition of Carnitine uptake (Carnitine: 0.010? uM, S-methylmethionine sufonium: 500 uM) in OCTN2-expressing HEK293 cells; assay type: functional, cell-based; design: scale not given: the % may be the effect or the level left; conditions: HEK293 cells that express OCTN2, probe Carnitine, read-out: Activity
[11] = target: T2, Organic cation/carnitine transporter 2; assay: TP_TRANSPORTER: inhibition of Carnitine uptake (Carnitine: 0.010? uM, Guanidine: 500 uM) in OCTN2-expressing HEK293 cells; assay type: functional, cell-based; conditions: hek293, 500 µM
[12] = target: T1, OCTN2 (organic cation/carnitine transporter 2); assay: TP_TRANSPORTER: inhibition of Carnitine uptake (Carnitine: 0.010? uM, OFLX: 500 uM) in OCTN2-expressing HEK293 cells; assay type: functional, cell-based; design: scale not given: the % may be the effect or the level left; conditions: HEK293 cells that express OCTN2, probe Carnitine, read-out: Activity
[13] = target: T1, OCTN2 (organic cation/carnitine transporter 2); assay: TP_TRANSPORTER: inhibition of Carnitine uptake (Carnitine: 0.010? uM, Quinine: 500 uM) in OCTN2-expressing HEK293 cells; assay type: functional, cell-based; design: scale not given: the % may be the effect or the level left; conditions: HEK293 cells that express OCTN2, probe Carnitine, read-out: Activity
[14] = target: T2, Organic cation/carnitine transporter 2; assay: TP_TRANSPORTER: inhibition of Carnitine uptake (Carnitine: 0.010? uM, Gly-Sar: 500 uM) in OCTN2-expressing HEK293 cells; assay type: functional, cell-based; conditions: hek293, 500 µM
[15] = target: T1, OCTN2 (organic cation/carnitine transporter 2); assay: TP_TRANSPORTER: inhibition of Carnitine uptake (Carnitine: 0.010? uM, Quinidine: 500 uM) in OCTN2-expressing HEK293 cells; assay type: functional, cell-based; design: scale not given: the % may be the effect or the level left; conditions: HEK293 cells that express OCTN2, probe Carnitine, read-out: Activity
[16] = target: T1, OCTN2 (organic cation/carnitine transporter 2); assay: in vitro; conditions: HEK293 cells that express OCTN2, probe Carnitine; remark: listed apart in the source
Description: TP_TRANSPORTER: inhibition of Carnitine uptake (Carnitine: 0.010? uM, Cimetidine: 500 uM) in OCTN2-expressing HEK293 cells

[17] = target: T1, OCTN2 (organic cation/carnitine transporter 2); assay: TP_TRANSPORTER: inhibition of Carnitine uptake (Carnitine: 0.010? uM, LFLX: 500 uM) in OCTN2-expressing HEK293 cells; assay type: functional, cell-based; design: scale not given: the % may be the effect or the level left; conditions: HEK293 cells that express OCTN2, probe Carnitine, read-out: Activity
[18] = substrate: C[N+](C)(C)CC(O)CC(=O)[O-]; assay: TP_TRANSPORTER: uptake, D-Carnitine in OCTN2-expressing HEK293 cells; assay type: functional, cell-based
[19] = substrate: CC(=O)O[C@H](CC(=O)[O-])C[N+](C)(C)C; assay: as §1; assay type: functional, cell-based

CC[N+](CC)(CC)CC [TETRYLAMMONIUM] was tested, and the activity at 500 µM [1] was 53.6% and the Activity [2] was “substrate [+]”.

With COc1ccc(CCN(C)CCCC(C#N)(c2ccc(OC)c(OC)c2)C(C)C)cc1OC (stereo unspecified) [VERAPAMIL] the Activity [2] was “substrate [+]” and the activity at 500 µM [3] was 2.4%.

C[n+]1ccc(-c2ccccc2)cc1 was tested, and the activity at 100 µM [4] was 69.8% and the Activity [2] was “is not a substrate [-]”.

Molecule C[C@]12C[C@H](O)[C@H]3[C@@H](CCC4=CC(=O)CC[C@@]43C)[C@@H]1CC[C@@H]2C(=O)CO [CORTICOSTERONE] has an activity at 500 µM [5] of 9.3%.

With Cc1c2oc3c(C)ccc(C(=O)N[C@@H]4C(=O)N[C@H](C(C)C)C(=O)N5CCC[C@H]5C(=O)N(C)CC(=O)N(C)[C@@H](C(C)C)C(=O)O[C@@H]4C)c3nc-2c(C(=O)N[C@@H]2C(=O)N[C@H](C(C)C)C(=O)N3CCC[C@H]3C(=O)N(C)CC(=O)N(C)[C@@H](C(C)C)C(=O)O[C@@H]2C)c(N)c1=O [DACTINOMYCIN] (I: T[dV]P[Sar][NMeV] / II: T[dV]P[Sar][NMeV]; ester I:1-I:C, II:1-II:C; linker I:N-II:N via Actinocin(9to1)) the Activity [2] was “is not a substrate [-]” and the activity at 100 µM [6] was 69%.

Work on NC(=O)c1cc[n+](CC2=C(C(=O)O)N3C(=O)[C@@H](NC(=O)[C@@H](c4ccccc4)S(=O)(=O)[O-])[C@H]3SC2)cc1 [CEFSULODIN] yielded an activity at 500 µM [7] of 32.8%.

Cc1c(F)c(N2CCNC(C)C2)cc2c1c(=O)c(C(=O)O)cn2C1CC1 (stereo unspecified) [GREPAFLOXACIN] showed an activity at 500 µM [8] of 68.6%.

In the case of COc1ccc(CN(CCN(C)C)c2ccccn2)cc1 [PYRILAMINE], the Activity [2] is reported as “substrate [+]” and the activity at 500 µM [9] is reported as 38.6%.

In the case of C[S+](C)CC[C@H](N)C(=O)[O-], the activity at 500 µM [10] is reported as 8.7%.

N=C(N)N [GUANIDINE] was tested, and the Activity [11] was “is not an inhibitor [-]” and the Activity [2] was “is not a substrate [-]”.

With CC1COc2c(N3CCN(C)CC3)c(F)cc3c(=O)c(C(=O)O)cn1c23 (stereo unspecified) [OFLOXACIN] the activity at 500 µM [12] was 76.8%.

C=C[C@H]1C[N@@]2CC[C@H]1C[C@H]2[C@H](O)c1ccnc2ccc(OC)cc12 [QUININE] was tested, and the activity at 500 µM [13] was 7.1%.

For CN(CC(=O)O)C(=O)CN [GLYCYLSARCOSINE] (H-Gly-[Sar]-OH), the Activity [14] was “is not an inhibitor [-]”.

C=C[C@H]1C[N@@]2CC[C@H]1C[C@@H]2[C@@H](O)c1ccnc2ccc(OC)cc12 [QUINIDINE] was tested, and the Activity [2] was “substrate [+]” and the activity at 500 µM [15] was 9.1%.

For CN/C(=N/CCSCc1nc[nH]c1C)NC#N [CIMETIDINE], the Activity [2] was “is not a substrate [-]” and the activity at 500 µM [16] was 66.4%.

Molecule CCn1cc(C(=O)O)c(=O)c2cc(F)c(N3CCNC(C)C3)c(F)c21 (stereo unspecified) [LOMEFLOXACIN] has an activity at 500 µM [17] of 88.6%.

B1: Organic cation/carnitine transporter 2 (Homo sapiens) (protein)
chain: T1 sequence (O76082 whole entry)
For B1, the Km [18] was 10.9 µM and the Km [19] was 8.5 µM.
